Five molecules from article PMC10913730, “Antimicrobial activity of a natural compound and analogs against multi-drug-resistant Gram-positive pathogens” (Microbiology Spectrum, 2024) can be followed below.

Series [1] in a line: pH and Ka of 10-g/L aqueous solutions (pH meter). It counts as physicochemical. The settings on record: 10-g/L solution in distilled, deionized water, room temperature.
The test system of a further series is MRSA isolates. Description: MIC/MBC, CLSI broth microdilution, MRSA isolates. It counts as cell-based, Staphylococcus aureus. To be noted: Staphylococcus aureus. Background: Broth dilution looks for growth in wells or tubes with falling amounts of substance.
The subject of a further series is MRSA isolate TCH 1516. Description: Resistance acquisition during serial passage. It counts as cell-based, Staphylococcus aureus. The settings on record: for increase in MIC: serial passage. As to the method: MRSA isolate TCH 1516 was grown to the stationary phase (OD650 = 1.0) in 10 mL of MH broth. […] The second highest drug concentration resulting in bacterial growth (OD650 >1.0) was used as the inoculum after a 1:1,000 dilution for subsequent steps, every 24 hours, for up to 21 days.

The mark [2] stands for this setting: MRSA, 39 evaluated MRSA isolates, CLSI broth microdilution.
Where [3] appears, read: MRSA, pH 7.4, MRSA 0606, pH 7.4.
Setting [4] is: MRSA, pH 7.4, MRSA 0608, pH 7.4.
The mark [5] stands for this setting: MRSA, pH 7.4, MRSA 0634, pH 7.4.
[6] abbreviates: MRSA, pH 7.4, MRSA 0641, pH 7.4.
The mark [7] stands for this setting: MRSA, pH 7.4, MRSA 0646, pH 7.4.
Where [8] appears, read: MRSA, read-out: MBC90, 39 evaluated MRSA isolates, CLSI broth microdilution.
Setting [9] is: MRSA, pH 5.5, MRSA 0606, pH 5.5.
Setting [10] is: MRSA, pH 5.5, MRSA 0608, pH 5.5.
Setting [11] is: MRSA, pH 5.5, MRSA 0634, pH 5.5.
[12] abbreviates: MRSA, pH 5.5, MRSA 0641, pH 5.5.
The mark [13] stands for this setting: MRSA, pH 5.5, MRSA 0646, pH 5.5.
Setting [14] is: MRSA, pH 6.5, MRSA 0606, pH 6.5.
[15] abbreviates: MRSA, pH 6.5, MRSA 0608, pH 6.5.
The mark [16] stands for this setting: MRSA, pH 6.5, MRSA 0634, pH 6.5.
[17] abbreviates: MRSA, pH 6.5, MRSA 0641, pH 6.5.
Setting [18] is: MRSA, pH 6.5, MRSA 0646, pH 6.5.
The mark [19] stands for this setting: 39 evaluated MRSA isolates, CLSI broth microdilution, read-out: MBC90.
[20] abbreviates: 39 evaluated MRSA isolates, CLSI broth microdilution, read-out: MIC90.

The term MIC90 denotes an inhibitory concentration at the 90% level, which refers to growth in some studies and to a panel of isolates in others. Usually MIC stands for the smallest concentration in the dilution series that meets the test's criterion for growth inhibition.

In brackets after ≈: the same amount, converted by molar mass. Like-named read-outs stand apart in the source and are kept apart here.

As to `[K+].[K+].[O-]c1c(Cl)cc(Cl)cc1-c1cc(Cl)cc(Cl)c1[O-]` [C59K], in series [1], the pH of solution result is “greater than 10”. Moreover, the MIC90 with MRSA isolates (setting [2]) was found to be 2 µg/mL. For the same molecule, the MBC against MRSA isolates (setting [3]) amounted to 6 µg/mL; in the series on MRSA isolates (setting [4]) it was 4 µg/mL; in the series with MRSA isolates (setting [5]) it was 6 µg/mL; in the series on MRSA isolates (setting [6]) it was 4 µg/mL; with MRSA isolates (setting [7]), 4 µg/mL; against MRSA isolates (MRSA, pH 7.4, TCH 1516, pH 7.4), 4 µg/mL. For the same molecule, the MBC with MRSA isolates (setting [8]) amounted to 4 µg/mL. Besides, the minimal inhibitory concentration (MIC) worked out at 2 µg/mL in the series with MRSA isolates (setting [3]); 4 µg/mL against MRSA isolates (setting [4]); 2 µg/mL in the series on MRSA isolates (setting [5]); 2 µg/mL in the series with MRSA isolates (setting [6]); 2 µg/mL with MRSA isolates (setting [7]); 2 µg/mL against MRSA isolates (MRSA, pH 7.4, TCH 1516, pH 7.4).

With `[Li+].[Li+].[O-]c1c(Cl)cc(Cl)cc1-c1cc(Cl)cc(Cl)c1[O-]` [C59Li], the pH of solution entry in series [1] was “greater than 10”. Also, in the series on MRSA isolates (setting [2]), the MIC90 was 4 µg/mL. Also, the MBC in the series with MRSA isolates (setting [9]) came to 0.25 µg/mL; in the series on MRSA isolates (setting [10]) it was 0.25 µg/mL; with MRSA isolates (setting [11]) it was 0.25 µg/mL; against MRSA isolates (setting [12]), 0.25 µg/mL; in the series with MRSA isolates (setting [13]) it was 0.25 µg/mL; in the series with MRSA isolates (MRSA, pH 5.5, TCH 1516, pH 5.5), 0.25 µg/mL. The MBC in the series on MRSA isolates (MRSA, pH 5.5, read-out: Average MBC, average of six MRSA isolates, pH 5.5) came out at 0.25 µg/mL; in the series with MRSA isolates (setting [14]), 1 µg/mL; against MRSA isolates (setting [15]), 2 µg/mL; with MRSA isolates (setting [16]) it was 1 µg/mL; against MRSA isolates (setting [17]), 6 µg/mL; against MRSA isolates (setting [18]), 1 µg/mL. The MBC in the series with MRSA isolates (MRSA, pH 6.5, TCH 1516, pH 6.5) was 1 µg/mL; with MRSA isolates (MRSA, pH 6.5, read-out: Average MBC, average of six MRSA isolates, pH 6.5), 2 µg/mL; in the series with MRSA isolates (setting [3]) it was 2 µg/mL; with MRSA isolates (setting [4]) it was 6 µg/mL; in the series on MRSA isolates (setting [5]), 2 µg/mL; in the series with MRSA isolates (setting [6]), 4 µg/mL. Also, the MBC against MRSA isolates (setting [7]) worked out at 4 µg/mL; in the series on MRSA isolates (MRSA, pH 7.4, TCH 1516, pH 7.4), 2 µg/mL; in the series on MRSA isolates (MRSA, pH 7.4, read-out: Average MBC, average of six MRSA isolates, pH 7.4), 3.3 µg/mL; with MRSA isolates (setting [8]) it was 4 µg/mL. Further, the MIC in the series with MRSA isolates (setting [9]) turned out to be 0.25 µg/mL; against MRSA isolates (setting [10]), 0.25 µg/mL; with MRSA isolates (setting [11]), 0.25 µg/mL; with MRSA isolates (setting [12]), 0.25 µg/mL; in the series with MRSA isolates (setting [13]), 0.25 µg/mL; against MRSA isolates (MRSA, pH 5.5, TCH 1516, pH 5.5), 0.25 µg/mL. Moreover, the MIC turned out to be 0.25 µg/mL in the series on MRSA isolates (MRSA, pH 5.5, read-out: Average MIC, average of six MRSA isolates, pH 5.5); 1 µg/mL against MRSA isolates (setting [14]); 1 µg/mL in the series with MRSA isolates (setting [15]); 1 µg/mL in the series on MRSA isolates (setting [16]); 0.5 µg/mL against MRSA isolates (setting [17]); 0.5 µg/mL in the series on MRSA isolates (setting [18]). The MIC is 1 µg/mL in the series on MRSA isolates (MRSA, pH 6.5, TCH 1516, pH 6.5); 0.83 µg/mL with MRSA isolates (MRSA, pH 6.5, read-out: Average MIC, average of six MRSA isolates, pH 6.5); 1 µg/mL against MRSA isolates (setting [3]); 2 µg/mL against MRSA isolates (setting [4]); 2 µg/mL in the series with MRSA isolates (setting [5]); 2 µg/mL in the series with MRSA isolates (setting [6]). The minimum inhibitory concentration (MIC) in the series with MRSA isolates (setting [7]) came out at 1 µg/mL; in the series on MRSA isolates (MRSA, pH 7.4, TCH 1516, pH 7.4) it was 2 µg/mL; in the series with MRSA isolates (MRSA, pH 7.4, read-out: Average MIC, average of six MRSA isolates, pH 7.4), 1.7 µg/mL.

As to `CCC[C@@H]1C[C@@H](C(=O)N[C@@H]([C@H]2O[C@H](SC)[C@H](O)[C@@H](O)[C@H]2O)[C@H](C)Cl)N(C)C1` [Clindamycin, clindamycin, reference compound], the MIC in the series with MRSA isolate TCH 1516 (Staphylococcus aureus, MRSA, 408 h, read-out: MIC after serial passage) was determined as 32 µg/mL (≈ 75.3 µM). Besides, the “increase in MIC” value with MRSA isolate TCH 1516 (after 17 days) came out at 256 fold. Also, the MBC in the series with MRSA isolates (setting [19]) is over 32 µg/mL. Further, in the series with MRSA isolates (setting [20]), the MIC90 is over 32 µg/mL.

For the molecule `CCCCCCCCCC(=O)N[C@@H](Cc1c[nH]c2ccccc12)C(=O)N[C@H](CC(N)=O)C(=O)N[C@@H](CC(=O)O)C(=O)N[C@@H]1C(=O)NCC(=O)N[C@@H](CCCN)C(=O)N[C@@H](CC(=O)O)C(=O)N[C@H](C)C(=O)N[C@@H](CC(=O)O)C(=O)NCC(=O)N[C@H](CO)C(=O)N[C@@H]([C@H](C)CC(=O)O)C(=O)N[C@@H](CC(=O)c2ccccc2N)C(=O)O[C@@H]1C` [Daptomycin, daptomycin, reference compound], in the series with MRSA isolates (setting [19]), the MBC was 2 µg/mL (≈ 1.23 µM). Also, the MIC90 with MRSA isolates (setting [20]) turned out to be 2 µg/mL (≈ 1.23 µM).

For the molecule `CC(=O)NC[C@H]1CN(c2ccc(N3CCOCC3)c(F)c2)C(=O)O1` [Linezolid, linezolid, reference compound], in the series on MRSA isolate TCH 1516 (after 21 days), the “increase in MIC” value is reported as 16 fold. The MBC with MRSA isolates (setting [19]) was over 32 µg/mL. Also, in the series on MRSA isolates (setting [20]), the MIC90 was 4 µg/mL (≈ 11.9 µM).
